What was measured:
[1] = system: peptide-pulsed C1R-A11 cells; assay: IFN-gamma ELISA of CTL lines and CTL clones (HLA-A*1101); format: cell-based, human
Description: (§1) CTLs were propagated in culture using methods similar to those disclosed by Riddell et al. (Walter E A et al., N Engl J Med 1995, 333(16): 1038-44; Riddell S R et al., Nat Med 1996, 2(2): 216-23). The CTLs were co-cultured in a total of 25 ml AIM-V medium containing 5% AS (AIM-V/5% AS) and 40 ng/ml anti-CD3 antibody with two types of Mitomycin C-treated human B lymphoblastoid cell lines at 5×10^6 cells/flask. One day after beginning of the culturing, 120 IU/ml IL-2 was added to the culture. On days 5, 8 and 11, a fresh AIM-V/5% AS medium containing 30 IU/ml IL-2 was added to the culture (Tanaka H et al., Br J Cancer 2001, 84(1): 94-9; Umano Y et al., Br J Cancer 2001, 84(8): 1052-7; Uchida N et al., Clin Cancer Res 2004, 10(24): 8577-86; Suda T et al., Cancer Sci 2006, 97(5): 411-9; Watanabe T et al., Cancer Sci 2005, 96(8): 498-506).
Dilution of CTLs was carried out to make 0.3, 1 and 3 cells/well in 96 round-bottomed microtiter plates (Nalge Nunc International). The CTLs were co-cultured with two types of Mitomycin C-treated human B lymphoblastoid cell lines at 1×10^4 cells/well in a total of 150 micro-l/well AIM-V/5% AS medium with 30 ng/ml anti-CD3 antibody and 125 IU/ml IL-2. Ten days later, IL-2 was added to the medium at 50 micro-1/well to reach a final concentration of 125 IU/ml. […]

peptide-pulsed C1R-A11 = assay: In vitro CTL induction, IFN-gamma ELISPOT assay (HLA-A*1101); format: cell-based, human; details: CTLs induced from HLA-A*1101-positive donors, against peptide-pulsed C1R-A11, compared with control
From the text: (§2) Monocyte-derived dendritic cells (DCs) were used as the antigen-presenting cell to induce a cytotoxic T lymphocyte (CTL) response against peptides presented on human leukocyte antigens (HLAs). As described in the other sections, DCs were generated in vitro (Nakahara S et al., Cancer Res 2003, 63(14): 4112-8). Specifically, peripheral-blood mononuclear cells isolated from healthy volunteers (HLA-A*1101-positive) with the Ficoll-Paque plus solution (Pharmacia) were separated by attaching to plastic tissue culture dishes (Becton Dickinson) and concentrated as a monocyte fraction. The monocyte-concentrated population was cultured in the presence of 1000 IU/ml granulocyte macrophage colony-stimulating factor (R&D System) and 1000 IU/ml interleukin(IL)-4 (R&D System) in an AIM-V medium (Invitrogen) containing 2% heat-inactivated autologous serum (AS). After seven days of culturing, the cytokine-induced DCs were pulsed with 20 micro-g/ml each of the synthesized peptides in an AIM-V medium at 37 degrees C. for three hours in the presence of 3 micro-g/ml beta 2-microglobulin. The generated cells appeared to express on their cell surface DC-associated molecules such as CD80, CD83, CD86 and HLA class II (data not shown). Next, these peptide-pulsed DCs were inactivated by X-ray irradiation (20 Gy), and mixed in a 1:20 ratio with autologous CD8^+ T cells obtained by positive selection using the CD8 Positive Isolation Kit (Dynal). These culture products were seeded in a 48-well plate (Corning). Each well was made to contain 1.5×10^4 peptide-pulsed DCs, 3×10^5 CD8^+ T cells and 10 ng/ml IL-7 (R&D System) in 0.5 ml of the AIM-V/2% AS medium. Three days later, these culture products were added with a final concentration of 20 IU/ml IL-2 (CHIRON). On day 7 and day 14, T cells were further stimulated with peptide-pulsed autologous DCs. The DCs were prepared every time by the same method as above. On day 21, after the third peptide stimulation, CTLs were examined against the peptide-pulsed C1R-A11 by a human interferon (IFN)-gamma enzyme-linked immunospot (ELISPOT) assay (Tanaka H et al., Br J Cancer 2001, 84(1): 94-9; Umano Y et al., Br J Cancer 2001, 84(8): 1052-7; Uchida N et al., Clin Cancer Res 2004, 10(24): 8577-86; Suda T et al., Cancer Sci 2006, 97(5): 411-9; Watanabe T et al., Cancer Sci 2005, 96(8): 498-506).
(§3) To examine specific CTL activity, an IFN-gamma ELISPOT assay and an IFN-gamma enzyme-linked immunosorbent assay (ELISA) were performed. Specifically, peptide-pulsed C1R-A11 (1×10^4 cells/well) was prepared as the stimulator cell. The induced CTLs, i.e., CTL lines and CTL clones, were used as the responder cell. The IFN-gamma ELISPOT assay and IFN-gamma ELISA were performed according to the manufacturer's manual.

[2] = system: COS7 cells transfected with both full-length URLC10 and the HLA-A*1101 gene; assay: Specific CTL activity against target cells expressing URLC10 and HLA-A*1101; format: cell-based, African green monkey
From the text: (§4) A cDNA encoding the open-reading frame of a target gene or HLA-A*1101 was amplified by PCR. The PCR-amplified product was cloned into an expression vector. Either or both of the target gene-expressing vector and the HLA-A*1101-expressing vector were transfected into COS7, which is a cell line negative for the target gene and HLA, using Lipofectamine 2000 (Invitrogen) following the manufacturer's recommended protocol. Two days after transfection, the transfected cells were harvested using versene (Invitrogen), and used as the target cell for CTL activity assay (5×10^4 cells/well).
(§5) The CTL clone established against URLC10-A11-10-132 (SEQ ID NO: 13) was investigated for its ability to recognize target cells expressing URLC10 and the HLA-A*1101 molecule. COS7 cells transfected with both full-length URLC10 and the HLA-A*1101 gene (a specific model of target cells expressing URLC10 and the HLA-A*1101 gene) were prepared as the target cell. COS7 cells transfected with either full-length URLC10 or HLA-A*1101 were prepared as the control.

[3] = system: COS7 cells transfected with both full-length URLC10 and the HLA-A*0301 gene; assay: Specific CTL activity against target cells expressing URLC10 and HLA-A*0301; format: cell-based, African green monkey
From the text: as §4, with “HLA-A*0301” for “HLA-A*1101”, “HLA-A*0301-expressing” for “HLA-A*1101-expressing”, “[…],” for “COS7,”
as §5, with “URLC10-A03-11-131” for “URLC10-A11-10-132”, “31)” for “13)”, “HLA-A*0301” for “HLA-A*1101”

[4] = system: C1R-A03 cells pulsed with the respective peptide; assay: IFN-gamma ELISA of CTL lines and CTL clones (HLA-A*0301); format: cell-based, human
Description: as §1
Dilution of CTLs was carried out to make 1 and 10 cells/well in 96 round-bottomed microtiter plates (Nalge Nunc International). The CTLs were co-cultured with two types of Mitomycin C-treated human B lymphoblastoid cell lines at 1×10^4 cells/well in a total of 150 micro-l/well 5% AS-containing AIM-V (AIM-V/5% AS) medium with 30 ng/ml anti-CD3 antibody and 125 IU/ml IL-2. Ten days later, IL-2 was added to the medium at 50 micro-l/well to reach a final concentration of 125 IU/ml. On day 14, the CTL activity was tested, and the CTL clones were propagated using the same method as described above (Uchida N et al., Clin Cancer Res 2004, 10(24): 8577-86; Suda T et al., Cancer Sci 2006, 97(5): 411-9; Watanabe T et al., Cancer Sci 2005, 96(8): 498-506).
as §3, with “C1R-A03” for “C1R-A11”

peptide-pulsed C1R-A03 = assay: In vitro CTL induction, IFN-gamma ELISPOT assay (HLA-A*0301); format: cell-based, human; details: CTLs induced from HLA-A*0301-positive donors, against peptide-pulsed C1R-A03, compared with control
From the text: as §2, with “(HLA-A*0301-positive)” for “(HLA-A*1101-positive)”, “C1R-A03” for “C1R-A11”
as §3, with “C1R-A03” for “C1R-A11”

[5] = CTL line against peptide-pulsed versus non-pulsed target cells

Sequence | IFN-gamma production of CTL clone ([1]; CTL clone by limiting dilution, against peptide-pulsed C1R-A11 cells) | IFN-gamma production of CTL line [1, 5] | peptide-specific CTL activity (IFN-gamma production) (peptide-pulsed C1R-A11) | CTL activity of peptide-stimulated CTL clone against control cells ([2]; COS7 cells transfected with either full-length URLC10 or HLA-A*1101) | CTL activity of peptide-stimulated CTL clone ([2]; against COS7 cells expressing both URLC10 and HLA-A*1101) | CTL activity of peptide-stimulated CTL clone against control cells ([3]; COS7 cells transfected with either full-length URLC10 or HLA-A*0301) | CTL activity of peptide-stimulated CTL clone ([3]; against COS7 cells expressing both URLC10 and HLA-A*0301) | IFN-gamma production of CTL clone ([4]; CTL clone by limiting dilution, against peptide-pulsed C1R-A03 cells) | IFN-gamma production of CTL line [4, 5] | peptide-specific CTL activity (IFN-gamma production) (peptide-pulsed C1R-A03)
IFPRFFMVAK (a peptide derived from URLC10) [SEQ ID NO 13, URLC10-derived 10mer peptide, start position 132] | Potent IFN-gamma production | potent IFN-gamma production | potent IFN-gamma production | significant specific CTL activity was not detected | potent CTL activity | – | – | – | – | –
KIFPRFFMVAK (a peptide derived from URLC10) [SEQ ID NO 31, URLC10-derived 11mer peptide, start position 131] | – | – | – | – | – | significant specific CTL activity was not detected | potent CTL activity | Potent IFN-gamma production | potent IFN-gamma production | potent IFN-gamma production

— patent US10576097B2, “URLC10-derived peptide and vaccine containing same” (ONCOTHERAPY SCIENCE, INC., priority 2014, dated 2020)
